# Data: ChEMBL document CHEMBL1131919, “Monocarboxylic-based phosphotyrosyl mimetics in the design of GRB2 SH2 domain inhibitors” (Bioorg Med Chem Lett, 1999)
# Target: Growth factor receptor-bound protein 2 (Homo sapiens, UniProt P62993)
# Assay: Inhibitory concentration against Growth factor receptor bound protein 2 in MDA-MB-453 cells
# Format: cell-based
row,IC50 [µM],SMILES
1,15,NC(=O)C[C@H](NC(=O)C1(NC(=O)[C@@H](Cc2ccc(OCC(=O)O)cc2)NC(=O)C(=O)O)CCCCC1)C(=O)NCCCc1cccc2ccccc12
2,28,NC(Cc1ccc(C(F)(F)C(=O)O)cc1)C(=O)O (stereo not given)
3,2.5,NC(Cc1ccc(OCC(=O)O)cc1)C(=O)O (stereo not given)
4,2,NC(=O)C[C@H](NC(=O)C1(NC(=O)[C@@H](Cc2ccc(C(F)(F)C(=O)O)cc2)NC(=O)C(=O)O)CCCCC1)C(=O)NCCCc1cccc2ccccc12
5,0.007,CC(=O)N[C@H](Cc1ccc(OP(=O)(O)O)cc1)C(=O)NC1(C(=O)N[C@@H](CC(N)=O)C(=O)NCCCc2cccc3ccccc23)CCCCC1
6,2.5,CC(=O)N[C@H](Cc1ccc(CC(=O)O)cc1)C(=O)NC1(C(=O)N[C@@H](CC(N)=O)C(=O)NCCCc2cccc3ccccc23)CCCCC1
7,0.6,NC(=O)C[C@H](NC(=O)C1(NC(=O)[C@@H](Cc2ccc(CC(=O)O)cc2)NC(=O)C(=O)O)CCCCC1)C(=O)NCCCc1cccc2ccccc12
8,65,NC(Cc1ccc(CC(=O)O)cc1)C(=O)O (stereo not given)
9,28,CC(=O)N[C@H](Cc1ccc(C(F)(F)C(=O)O)cc1)C(=O)NC1(C(=O)N[C@@H](CC(N)=O)C(=O)NCCCc2cccc3ccccc23)CCCCC1
10,65,CC(=O)N[C@H](Cc1ccc(OCC(=O)O)cc1)C(=O)NC1(C(=O)N[C@@H](CC(N)=O)C(=O)NCCCc2cccc3ccccc23)CCCCC1
